According to patent publication US12522614B2, “Topical phosphoinositide 3-kinase inhibitors” (VENTHERA, INC., priority 2019, dated 2026):

Tests used:
[1] = In vitro human skin permeation study of topical gel formulations (Franz diffusion cells); type: in vitro ADME; settings: human skin; for Cumulative permeation (intact compound) / Hydrolysis of Cmpd. 1.001 to MTPP: Study-4, saturated gel
[2] = as above; type: in vitro ADME; settings: saturated gel formulations, skin flux experiments
Excerpt: The gel formulation of Example 8 was used as the donor phase to determine the permeation of Compound 1.002 through human skin and its effectiveness as a topical application. Three skin donors and three diffusion cells (for each donor) per formulation were used in the in vitro skin permeation experiments. Split thickness dermatomed (approximately at […] thickness) human cadaver skin, supplied by New York Firefighters Skin Bank, NY, was used to determine the permeation rate of the tested compound (i.e., the drug) in vitro. All in vitro skin permeation studies were conducted using the Vertical Diffusion Cells assembly with consoles (Model FDC-6), and heating controllers (Logan Instruments Inc. Somerset, NJ). Each assembly consisted of six vertical, jacketed (37° C.±0.5° C.) 12-mL Franz diffusion cells with magnetic stirrer and 1.767 cm^2 diffusion area.
(§1) Skin flux studies were run for a period of 48 hours. At predetermined intervals (2, 4, 8, 24 and 48 hours) after starting the experiment, the entire contents of the receiver compartment were collected for determining concentrations of the drug by HPLC. The receiver compartment was refilled with fresh receiver medium. The receiver medium was pH 7.4 phosphate buffer with 0.5 mg/ml of Oleath 20 with the saturation concentration of the drug in the receptor medium being 0.152 mg/ml. This solubility of the drug in the receiver medium was enough to ensure sink conditions throughout each collection interval.
Samples of the receptor phase were obtained at 2, 4, 8, 12, 24 and 48 h and concentrations of Compound 1.002 and 3-(4-morpholinothieno(3,2-d)pyrimidin-2-yl)phenol (metabolite of Compound 1.002, abbreviated as MTPP) were determined using a validated HPLC method. The metabolism of Compound 1.002 to MTPP takes place in the human skin by esterase enzymes.
HPLC method: Column—Gemini C-18 4.6×150 mm, 5 μm particle size; Mobile Phase—water:acetonitrile 25:75 containing 0.1% TFA; Flow Rate—1 mL/min; Detection—274 nm; Column Temperature—40° C.; and Run Time—10 min. The retention times for MTPP and Compound 1.002 were 3.9 and 7.2 minutes, respectively.
The skin flux of drugs and cumulative amount of drugs permeated (sum of MTPP and Compound 1.002) for a period of 48 hours were calculated and are shown in Table 3. FIG. 3 represents a plot of Cumulative amount permeated versus time.

[3] = Saturation concentration in formulation or receiver medium; type: physicochemical; settings: gel formulation with excipients of Example 8 (Table 2)
Experimental: The liquid excipients, i.e. DMSO, oleic acid, Transcutol® P, and dipropylene glycol were mixed in a 20-mL vial, by vortex agitation. The active ingredient, a compound of formula (I), for example Compound 1.002 was then added, and the vial content was sonicated for 10 minutes to dissolve the compound. […] Hydroxylpropyl cellulose (HPC) was added, and the vial was agitated by vortex for another ten minutes to obtain the gel formulation. The viscosity of the clear gel was measured to be in a range of about 7,000 to 10,000 centipoise (cp).
as §1

[4] = Accelerated stability study of topical gel formulations at 80° C.; type: physicochemical; settings: for Relative Purity: gel formulation (Table 2 excipients); for Relative Purity / percent hydrolysis to the parent compound MTPP: 80° C.; for percent hydrolysis to the parent compound MTPP: gel formulation
Experimental: Topical gel formulations were prepared using excipients as shown in Table 2 according to Example 8, in which Compounds 1.002, 1.012, and 1.006 were used as the active ingredient, respectively. These gel formulations were subjected to stability study at 80° C. for 10 days. Stability under the condition of at 80° C. for 10 days is expected to be approximately equivalent to the stability for three (3) years at room temperature. A relative purity of the tested compound after being exposed for 5 days and 10 days at 80° C. was determined by HPLC, as compared to its initial purity (at day 0).
The values shown in the table are percent hydrolysis of the respective compounds to the parent compound MTPP.
Topical gel formulations of Compound 1.002 were prepared using excipients as shown in Table 2 according to Example 8, in which the content of oleic acid varied at 1%, 2%, 5%, and 10%, respectively. These gel formulations were subjected to stability study at 80° C. for 10 days, which is expected to be approximately equivalent to the stability for three (3) years at room temperature. A purity of the tested compound on day 0, 5, 7, and 10 at 80° C. was determined by HPLC. The detected impurity of the tested compound appears to be the hydrolysis product, as MTPP. Table 17 represents stability data of Compound 1.002 in topical formulations having oleic acid at various contents.
Gel formulations of Example 17 were subjected to stability study at 80° C. for 10 days. Stability under the condition of at 80° C. for 10 days is expected to be approximately equivalent to the stability for three (3) years at room temperature. A relative purity of Compound 1.002 after being exposed for 5 days and 10 days at 80° C. was determined by HPLC, as compared to its initial purity (at day 0).

[5] = as above; type: physicochemical; settings: gel formulation, 3 days
[6] = Study-5, Table 6A experiment, saturated gel, 2 h
[7] = Study-5, Table 6A experiment, saturated gel, 4 h
[8] = Study-5, Table 6A experiment, saturated gel, 8 h
[9] = Study-5, Table 6A experiment, saturated gel, 24 h
[10] = Study-5, Table 6A experiment, saturated gel, 48 h
[11] = Study-5, Table 6B experiment, gel saturated at 215 mg/mL, 2 h
[12] = Study-5, Table 6B experiment, gel saturated at 215 mg/mL, 4 h
[13] = Study-5, Table 6B experiment, gel saturated at 215 mg/mL, 8 h
[14] = Study-5, Table 6B experiment, gel saturated at 215 mg/mL, 24 h
[15] = Study-5, Table 6B experiment, gel saturated at 215 mg/mL, 48 h

COc1cccc(-c2nc(N3CCOCC3)c3sccc3n2)c1 [Compound 1.001, 4-(2-(3-Methoxyphenyl)thieno[3,2-d]pyrimidin-4-yl)morpholine]
Cumulative permeation (intact compound) ([1]; 2 h): 0.0 μg/cm^2 | Hydrolysis of Cmpd. 1.001 to MTPP ([1]; 2 h): 0.0 | Cumulative permeation (intact compound) ([1]; 4 h): 10.2 μg/cm^2 | Hydrolysis of Cmpd. 1.001 to MTPP ([1]; 4 h): 0.0 | Cumulative permeation (intact compound) ([1]; 8 h): 51.8 μg/cm^2 | Hydrolysis of Cmpd. 1.001 to MTPP ([1]; 8 h): 0.0 | Cumulative permeation (intact compound) ([1]; 24 h): 202.1 μg/cm^2 | Hydrolysis of Cmpd. 1.001 to MTPP ([1]; 24 h): 0.0 | Cumulative permeation (intact compound) ([1]; 48 h): 260.4 μg/cm^2 | Hydrolysis of Cmpd. 1.001 to MTPP ([1]; 48 h): 0.0 | Metabolism to MTPP during permeation through human skin [2]: appeared not to metabolize to MTPP

CCCCCC(=O)Oc1cccc(-c2nc(N3CCOCC3)c3sccc3n2)c1 [Compound 1.006, 3-(4-Morpholinothieno[3,2-d]pyrimidin-2-yl)phenyl Hexanoate]
Cumulative permeation, Compound 1.006 [1, 6]: 0.0 μg/cm^2 | Hydrolysis of Cmpd. 1.006 to MTPP [1, 6]: 100% | Cumulative permeation, Compound 1.006 [1, 7]: 0.0 μg/cm^2 | Hydrolysis of Cmpd. 1.006 to MTPP [1, 7]: 100% | Cumulative permeation, Compound 1.006 [1, 8]: 1.0 μg/cm^2 | Hydrolysis of Cmpd. 1.006 to MTPP [1, 8]: 96.7% | Cumulative permeation, Compound 1.006 [1, 9]: 13.0 μg/cm^2 | Hydrolysis of Cmpd. 1.006 to MTPP [1, 9]: 79.5% | Cumulative permeation, Compound 1.006 [1, 10]: 30.5 μg/cm^2 | Hydrolysis of Cmpd. 1.006 to MTPP [1, 10]: 82.0% | Cumulative permeation, Compound 1.006 [1, 11]: 0.0 μg/cm^2 | Hydrolysis of Cmpd. 1.006 to MTPP [1, 11]: 100% | Cumulative permeation, Compound 1.006 [1, 12]: 0.5 μg/cm^2 | Hydrolysis of Cmpd. 1.006 to MTPP [1, 12]: 93.3% | Cumulative permeation, Compound 1.006 [1, 13]: 0.5 μg/cm^2 | Hydrolysis of Cmpd. 1.006 to MTPP [1, 13]: 97.8% | Cumulative permeation, Compound 1.006 [1, 14]: 0.6 μg/cm^2 | Hydrolysis of Cmpd. 1.006 to MTPP [1, 14]: 98.9% | Cumulative permeation, Compound 1.006 [1, 15]: 0.6 μg/cm^2 | Hydrolysis of Cmpd. 1.006 to MTPP [1, 15]: 99.4% | Saturation concentration in the gel formulation [3]: 215 mg/mL | Metabolism to MTPP during permeation through human skin [2]: metabolize into MTPP | Relative Purity ([4]; Day 0): 100% | Relative Purity ([4]; Day 5): 94% | Relative Purity ([4]; Day 10): 92%

CCCCCCCCCC(=O)Oc1cccc(-c2nc(N3CCOCC3)c3sccc3n2)c1 [Compound 1.008, 3-(4-Morpholinothieno[3,2-d]pyrimidin-2-yl)phenyl Decanoate]
percent hydrolysis to the parent compound MTPP [5]: 0.20% | Stability in gel formulation ([4]; 80° C. for 10 days): very stable | percent hydrolysis to the parent compound MTPP ([4]; 0 days): 0.00% | percent hydrolysis to the parent compound MTPP ([4]; 5 days): 0.28% | percent hydrolysis to the parent compound MTPP ([4]; 7 days): 0.39% | percent hydrolysis to the parent compound MTPP ([4]; 10 days): 0.56%
